Test results published in patent US10550105B2 (Ribon Therapeutics Inc., priority 2018, dated 2020).

Legend:
Assay in all cases: Growth inhibition of cancer cell lines, 144 hours (CellTiter-Glo)
Type in all cases: cell-based
YD-10B = conditions: tongue squamous cell carcinoma
Protocol: (§1) Example C: Inhibition of Cancer Cell Growth by Treatment with PARP7 Inhibitors
(§2) Table A-2 and Table A-3 (below) represents the concentration that causes 50% growth inhibition (GI50) in a panel of cancer cell lines with Compound 18B and Compound 561. Cells were plated into 384-well plates at a pre-specified density in fetal bovine serum-containing media. Cells were treated with compound or vehicle (DMSO) 24 hrs later, and a day zero plate was collected for analysis. Test compound plates were incubated continuously for 72 hrs (Table A-2) or 144 hours (Table A-3) cell growth was assessed using a luminescent cell viability assay (CellTiter-Glo, Promega). The GI50was determined by correcting for the cell count at time zero (time of treatment) and plotting data as percent growth relative to vehicle-treated cells.

EBC-1 = conditions: Homo sapiens, squamous cell lung carcinoma
Protocol: as §1, §2

NCI-H2444 = conditions: Homo sapiens, non-small cell lung carcinoma
Protocol: as §1, §2

NCI-H2087 = conditions: Homo sapiens, lung adenocarcinoma
Protocol: as §1, §2

NCI-H2291 = conditions: Homo sapiens, lung adenocarcinoma
Protocol: as §1, §2

NUGC-3 = conditions: Homo sapiens, gastric adenocarcinoma
Protocol: as §1, §2

TE-11 = conditions: Homo sapiens, esophageal squamous cell carcinoma
Protocol: as §1, §2

CAL-27 = conditions: Homo sapiens, tongue squamous cell carcinoma
Protocol: as §1, §2

NCI-H1930 = conditions: Homo sapiens, small cell lung carcinoma
Protocol: as §1, §2

NCI-H2066 = conditions: squamous cell lung carcinoma
Protocol: as §1, §2

LN-18 = conditions: Homo sapiens, glioblastoma
Protocol: as §1, §2

A101D = conditions: Homo sapiens, melanoma
Protocol: as §1, §2

SF126 = conditions: Homo sapiens, SF-126, glioblastoma multiforme
Protocol: as §1, §2

HPAF-II = conditions: Homo sapiens, pancreatic adenocarcinoma
Protocol: as §1, §2

TUHR10TKB = conditions: renal cell carcinoma
Protocol: as §1, §2

HT-1080 = conditions: Homo sapiens, fibrosarcoma
Protocol: as §1, §2

CFPAC-1 = conditions: Homo sapiens, pancreatic ductal adenocarcinoma
Protocol: as §1, §2

KMBC-2 = conditions: bladder carcinoma
Protocol: as §1, §2

Molecule `C[C@@H](COCCC(=O)N1CCN(c2ncc(C(F)(F)F)cn2)CC1)Nc1cn[nH]c(=O)c1C(F)(F)F` [Example 561, 5-[[(2S)-1-(3-oxo-3-[4-[5-(trifluoromethyl)pyrimidin-2-yl]piperazin-1-yl]propoxy)propan-2-yl]amino]-4-(trifluoromethyl)-2,3-dihydropyridazin-3-one] has a GI50 (YD-10B) of no less than 1000 nM, a GI50 (EBC-1) of less than 100 nM and a GI50 (NCI-H2444) of no less than 1000 nM. For the same molecule, the GI50 (NCI-H2087) was no less than 1000 nM, the GI50 (NCI-H2291) was no less than 1000 nM and the GI50 (NUGC-3) was no less than 1000 nM. The GI50 (TE-11) was no less than 1000 nM, the GI50 (CAL-27) was no less than 1000 nM and the GI50 (NCI-H1930) was no less than 1000 nM. For the same molecule, the GI50 (NCI-H2066) was no less than 1000 nM, the GI50 (LN-18) was no less than 1000 nM and the GI50 (A101D) was no less than 1000 nM. The GI50 (SF126) was no less than 1000 nM, the GI50 (HPAF-II) was no less than 1000 nM and the GI50 (TUHR10TKB) was less than 100 nM. The GI50 (HT-1080) was no less than 1000 nM, the GI50 (CFPAC-1) was 100 to 1000 nM and the GI50 (KMBC-2) was no less than 1000 nM.
